According to US20250270212A1, “CHIMERIC COMPOUNDS USEFUL IN TREATING DISEASES” (Padarn Therapeutics, Inc., priority 2021, published 2025):
Where two headings read alike, the source gives them in different places.

Columns and labels:
MDA-MB-231 = experiment: Cellular growth inhibition assay (CellTiter-Glo); format: cell-based; settings: Homo sapiens
Procedure: Example E. Cellular Growth Inhibition Assay
HEK293 (Institute of Cytology Russian Academy of Science), MDA-MB-231 (ATCC, CRM-HTB-26), HCC1395 (ATCC, CRL-2324), HCC1937 (ATCC, CRL-2336), UWB1.289+BRCA1 (ATCC, CRL-2946) were seeded at a density of 500 cells per well in a 384-well clear bottom plate (Greiner Cat #781090) in 45 μl total volume of DMEM (PanEco, Cat #C420) or RPMI (PanEco, Cat #C330) or RPMI/MEBM (Lonza, Cat #CC-3151+CC-4136) with 10% FBS (HyClone, Cat #SV30160.03). Cells were allowed to adhere overnight at 370 C, 5% CO2. 500× compounds solutions in DMSO (Sigma Cat #D2650) were prepared into Cmpnds plate (Diamond Well Plate, Axigen, Cat #P-384-120SQ-C-S) and DMSO only control was included. 1 μl of 500× compounds (Cmpnds plate) was added to 49 μl of culture medium into Dilution plate (Diamond Well Plate, Axigen, Cat #P-384-120SQ-C-S), mixed and then 5 μl of 10× compounds solutions were transferred to cells followed by centrifugation at 100 g for 1 min. Final DMSO concentration was 0.2%. After 3 days of incubation, 10 μl of 1× compounds were added to cells. […]

[1] = target: recombinant PARP1 (AA662-1014) protein (Homo sapiens (Human), UniProt P09874); experiment: Tracer displacement fluorescence polarization assay; settings: displacement of AlexaFluor488 tracer from NAD+-binding site, PARP1 25 nM
recombinant PARP1 (AA662-1014) protein, sequence (P09874 662-1014): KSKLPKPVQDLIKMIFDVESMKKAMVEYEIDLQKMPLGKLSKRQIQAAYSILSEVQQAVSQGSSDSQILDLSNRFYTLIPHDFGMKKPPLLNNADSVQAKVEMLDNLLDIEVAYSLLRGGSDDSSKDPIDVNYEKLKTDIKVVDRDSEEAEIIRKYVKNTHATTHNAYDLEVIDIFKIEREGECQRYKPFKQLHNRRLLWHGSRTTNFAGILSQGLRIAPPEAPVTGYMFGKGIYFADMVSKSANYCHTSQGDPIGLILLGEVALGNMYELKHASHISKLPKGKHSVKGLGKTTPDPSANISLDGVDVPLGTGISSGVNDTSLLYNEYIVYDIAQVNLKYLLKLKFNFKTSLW
Procedure: Example B. Tracer Displacement Fluorescence Polarization Assays
Displacement of AlexaFlour488 marked tracer from the NAD+-binding site of recombinant PARP1 (AA662-1014) protein (OriGene, Cat #: AR09368PU-L) was measured in vitro using Fluorescence polarization assay. The reaction was carried out in assay buffer (50 mM TRIS-HCl pH 7.4-7.8, 150 mM NaCl, 10 mM MgCl2, 0.001% Triton-X). 2×PARP1 (final concentration 25 nM) was diluted in 1× Assay buffer and 10 μl of the solution per well was added into 384-well Black Non-Treated Reaction plate (Corning, Cat #4511). Plates were centrifuged for 1 min at 200 g. The compounds were prepared in a 384-well Diamond Well Plate (Axygen, Cat #P-384-120SQ-C-S) as 400× solutions in DMSO and were transferred into Reaction plate using the Biomek FX liquid handling system with intermediate dilution down to 10× working solution in assay buffer in a separate 384-well Diamond Well Plate (Axygen, Cat #P-384-120SQ-C-S) (2 μl per well). Plates were centrifuged for 1 min at 200 g and incubated for 15 min at room temperature in the dark. Then 8 μL per well of 2.5× Tracer AlexaFluor488 (final concentration 1 nM) diluted in 1× Assay buffer was added into Reaction plate. 1× Assay buffer was used to make blank samples for instrument calculations. Plates were incubated for 30 minutes at room temperature in the dark. Fluorescence polarization was measured using Microplate Reader (BMG, ClarioStar Plus). The % tracer displacement was used to calculate the IC50 values. The IC50 values are shown in Table A, wherein “A” corresponds to IC50<0.01 μM, “B” corresponds to 0.01 μM≤IC50<0.1 μM, “C” 0.1 μM≤IC50<[…], and “D” corresponds to […].

recombinant Wee1 protein = recombinant Wee1 protein (Homo sapiens (Human), UniProt P30291); experiment: Wee1 enzymatic activity inhibition, ADP-Glo luminescence assay; format: biochemical; settings: recombinant Wee1, PolyE4Y1 substrate, 1 h room temperature
recombinant Wee1 protein, sequence (P30291 whole entry): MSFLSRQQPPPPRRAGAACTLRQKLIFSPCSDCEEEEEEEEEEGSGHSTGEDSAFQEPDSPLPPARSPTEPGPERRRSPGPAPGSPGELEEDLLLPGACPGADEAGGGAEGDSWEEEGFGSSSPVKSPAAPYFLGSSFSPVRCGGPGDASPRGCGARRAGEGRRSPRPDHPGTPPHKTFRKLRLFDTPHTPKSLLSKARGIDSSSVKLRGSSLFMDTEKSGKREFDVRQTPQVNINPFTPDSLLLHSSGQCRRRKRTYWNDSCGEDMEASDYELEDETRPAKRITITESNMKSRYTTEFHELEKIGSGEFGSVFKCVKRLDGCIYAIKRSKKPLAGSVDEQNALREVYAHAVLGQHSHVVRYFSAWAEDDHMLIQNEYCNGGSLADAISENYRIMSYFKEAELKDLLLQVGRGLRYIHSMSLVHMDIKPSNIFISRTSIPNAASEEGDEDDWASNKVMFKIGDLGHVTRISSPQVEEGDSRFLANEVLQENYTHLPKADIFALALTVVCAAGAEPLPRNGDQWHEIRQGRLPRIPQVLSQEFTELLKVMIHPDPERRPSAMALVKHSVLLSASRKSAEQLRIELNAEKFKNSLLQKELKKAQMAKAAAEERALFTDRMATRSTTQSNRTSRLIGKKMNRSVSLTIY
Procedure: Example A. Primary Assay Used to Determine Potency of Wee1 Enzymatic Activity Inhibition
Compound activity was determined using recombinant Wee1 protein (BPS, Cat #40412) and PolyE4Y1 Substrate (Poly(Glu,Tyr) sodium salt, Sigma, Cat #P0275-25MG) in an in vitro enzymatic reaction. The enzymatic assay used to determine activity was a Luminescence assay using a Microplate Reader (BMG, ClarioStar Plus). The enzymatic reaction was carried out in assay buffer (40 mM TRIS-HCl pH 7.4-7.6, 20 mM MgCl2, 0.05 mM DTT, 0.1 mg/ml BSA, 5 mM MnCl2). The compounds were dispensed on a 384 well Diamond Well Plate (Axigen, Cat #P-384-120SQ-C-S) using the Biomek FX liquid handling system at 100× solutions of compounds in DMSO. 2×Wee1-PolyE4Y1 mix (final concentration 0.85 ng/μl of Wee1 and 0.2 μg/μl of PolyE4Y1) was prepared in 1× Assay buffer and 5.5 μl of mixture per well was added into 384w white Reaction plate with NBS (Corning, Cat #4513). 5.5 μl of PolyE4Y1 substrate w/o Wee1 in 1× buffer was used for negative control. Plates were centrifuged for 1 min at 100 g. Next step the Compounds were added to Reaction plate using Biomek station via following steps: 1 μl of 100× compounds (in DMSO) were mixed thoroughly with 49 μl of 2×10 μM ATP in Assay Buffer, then 5.5 μl of this mixture was added to Reaction plate with 5.5 μl of Wee1-PolyE4Y1 mix. Plates were centrifuged for 1 min at 100 g and incubated for 1 h at room temperature. Next 3 μL of ADP-Glo reagent (Promega, ADP-Glo™ Kinase Assay, Cat #V9102) per well was added. Plates were incubated for 30 minutes at room temperature. Then 6 μL of Kinase detection reagent (Promega, ADP-Glo™ Kinase Assay, Cat #V9102) per well was added and the Luminescence was measured using Microplate Reader. The % inhibition was then used to calculate the IC50 values. The IC50 values are shown in Table A, wherein “A” corresponds to IC50<0.01 μM, “B” corresponds to 0.01 μM≤IC50<0.1 μM, “C” 0.1 μM≤IC50<1 μM, and “D” corresponds to […].

[2] = 120 h, MDA-MB-231, 5 days, read-out: MDA-MB-231 EC50 (μM) 5 days
[3] = 168 h, MDA-MB-231, 7 days, read-out: MDA-MB-231 EC50 (μM) 7 days
[4] = 240 h, MDA-MB-231, 10 days, read-out: MDA-MB-231 EC50 (μM) 10 days

EC50 (MDA-MB-231; [2]) | EC50 (MDA-MB-231; [3]) | EC50 (MDA-MB-231; [4]) | EC50 [1] | EC50 (recombinant Wee1 protein) | SMILES
0.69 µM | 0.66 µM | 0.11 µM | < 10 nM |  | C=CCn1c(=O)c2cnc(Nc3ccc(N4CCN(C(=O)c5cc(Cc6n[nH]c(=O)c7ccccc67)ccc5F)CC4)cc3)nc2n1-c1cccc(C(C)(C)O)c1
3.75 µM |  |  | < 10 nM | 100 to 1000 nM | Cn1c(=O)c2cnc(Nc3ccc(N4CCN(C(=O)c5cc(Cc6n[nH]c(=O)c7ccccc67)ccc5F)CC4)cc3)nc2n1-c1ccccn1 [Compound 3, 4-{4-Fluoro-3-[(4-{4-[(2-methyl-3-oxo-1-pyridin-2-yl-2,3-dihydro-1H-pyrazolo[3,4-d]pyrimidin-6-yl)amino]phenyl}piperazin-1-yl)carbonyl]benzyl}phthalazin-1(2H)-one]
 |  |  | < 10 nM | 100 to 1000 nM | O=C(c1cc(Cc2n[nH]c(=O)c3ccccc23)ccc1F)N1CCN(c2ccc(Nc3ncc4c(=O)n(CCO)n(-c5ccccn5)c4n3)cc2)CC1 [Compound 15, 4-(4-Fluoro-3-{[4-(4-{[2-(2-hydroxyethyl)-3-oxo-1-pyridin-2-yl-2,3-dihydro-1H-pyrazolo[3,4-d]pyrimidin-6-yl]amino}phenyl)piperazin-1-yl]carbonyl}benzyl)phthalazin-1(2H)-one]
0.96 µM | 0.8 µM | 0.18 µM | < 10 nM |  | C=CCn1c(=O)c2cnc(Nc3ccc(N4CCN(C(=O)c5cc(Cn6c(=O)[nH]c(=O)c7c(F)cccc76)ccc5F)CC4)cc3)nc2n1-c1cccc(C(C)(C)O)n1 [Compound 16, 1-[[3-[4-[4-[[2-Allyl-1-[6-(1-hydroxy-1-methyl-ethyl)-2-pyridyl]-3-oxo-pyrazolo[3,4-d]pyrimidin-6-yl]amino]phenyl]piperazine-1-carbonyl]-4-fluoro-phenyl]methyl]-5-fluoro-quinazoline-2,4-dione]
 |  |  | < 10 nM | 100 to 1000 nM | Cn1c(=O)c2cnc(Nc3ccc(N4CCN(C(=O)c5cc(Cn6c(=O)[nH]c(=O)c7c(F)cccc76)ccc5F)CC4)cc3)nc2n1-c1ncccn1 [Compound 29, 5-Fluoro-1-{4-fluoro-3-[(4-{4-[(2-methyl-3-oxo-1-pyrimidin-2-yl-2,3-dihydro-1H-pyrazolo[3,4-d]pyrimidin-6-yl)amino]phenyl}piperazin-1-yl)carbonyl]benzyl}quinazoline-2,4(1H,3H)-dione]
 |  |  | < 10 nM | 10 to 100 nM | Cn1c(=O)c2cnc(Nc3ccc(N4CCN(Cc5ccc(-c6[nH]c7cc(F)cc8c7c6CCNC8=O)cc5)CC4)cc3)nc2n1-c1ccccn1 [Compound 36, 8-Fluoro-2-{4-[(4-{4-[(2-methyl-3-oxo-1-pyridin-2-yl-2,3-dihydro-1H-pyrazolo[3,4-d]pyrimidin-6-yl)amino]phenyl}piperazin-1-yl)methyl]phenyl}-1,3,4,5-tetrahydro-6H-azepino[5,4,3-cd]indol-6-one]
 |  |  | 10 to 100 nM | 100 to 1000 nM | COCCn1c(=O)c2cnc(Nc3ccc(N4CCN(Cc5ccc(-c6[nH]c7cc(F)cc8c7c6CCNC8=O)cc5)CC4)cc3)nc2n1-c1ccccn1 [Compound 38, 8-Fluoro-2-(4-{[4-(4-{[2-(2-methoxyethyl)-3-oxo-1-pyridin-2-yl-2,3-dihydro-1H-pyrazolo[3,4-d]pyrimidin-6-yl]amino}phenyl)piperazin-1-yl]methyl}phenyl)-1,3,4,5-tetrahydro-6H-azepino[5,4,3-cd]indol-6-one]
 |  |  | 10 to 100 nM | 10 to 100 nM | Cn1c(=O)c2cnc(Nc3ccc(N4CCN(Cc5ccc(-c6[nH]c7cc(F)cc8c7c6CCNC8=O)cc5)CC4)cc3)nc2n1-c1cccc(C(C)(C)O)n1 [Compound 40, 8-Fluoro-2-[4-({4-[4-({1-[6-(1-hydroxy-1-methylethyl)pyridin-2-yl]-2-methyl-3-oxo-2,3-dihydro-1H-pyrazolo[3,4-d]pyrimidin-6-yl}amino)phenyl]piperazin-1-yl}methyl)phenyl]-1,3,4,5-tetrahydro-6H-azepino[5,4,3-cd]indol-6-one]
 |  |  | < 10 nM | ≥ 1 nM | C=CCn1c(=O)c2cnc(N3CCN(Cc4ccc(-c5[nH]c6cc(F)cc7c6c5CCNC7=O)cc4)CC3)nc2n1-c1cccc(C(C)(C)O)n1 [Compound 44, 2-{4-[(4-{2-Allyl-1-[6-(1-hydroxy-1-methylethyl)pyridin-2-yl]-3-oxo-2,3-dihydro-1H-pyrazolo[3,4-d]pyrimidin-6-yl}piperazin-1-yl)methyl]phenyl}-8-fluoro-1,3,4,5-tetrahydro-6H-azepino[5,4,3-cd]indol-6-one]
 |  |  | 10 to 100 nM | 10 to 100 nM | Cn1c(=O)c2cnc(Nc3ccc(N4CCC(n5cc6cccc(C(N)=O)c6n5)CC4)cc3)nc2n1-c1ccccn1 [Compound 83]
 |  |  | 10 to 100 nM | 100 to 1000 nM | Cn1c2nc(Nc3ccc(N4CCC(n5cc6cccc(C(N)=O)c6n5)CC4)cc3)ncc2c(=O)n1-c1ccccn1 [Compound 86]
 |  |  | 10 to 100 nM | 10 to 100 nM | Cn1c(=O)c2cnc(Nc3ccc(N4CCC(c5nc6cccc(C(N)=O)c6[nH]5)CC4)cc3)nc2n1-c1ccccn1 [Compound 95, 2-[1-[4-[[2-methyl-3-oxo-1-(2-pyridyl)pyrazolo[3,4-d]pyrimidin-6-yl]amino]phenyl]-4-piperidyl]-3H-benzimidazole-4-carboxamide]
2.77 µM |  |  | 10 to 100 nM |  | Cn1c(=O)c2cnc(Nc3ccc(N4CCCC(c5nc6cccc(C(N)=O)c6[nH]5)C4)cc3)nc2n1-c1ccccn1 (stereo not drawn) [Compound 96, 2-[1-[4-[[2-methyl-3-oxo-1-(2-pyridyl)pyrazolo[3,4-d]pyrimidin-6-yl]amino]phenyl]-3-piperidyl]-3H-benzimidazole-4-carboxamide]
 |  |  | 10 to 100 nM | 100 to 1000 nM | Cn1c2nc(Nc3ccc(N4CCCC(c5nc6cccc(C(N)=O)c6[nH]5)C4)cc3)ncc2c(=O)n1-c1ccccn1 (stereo not drawn) [Compound 97]
